Experimental data as given in patent US9359372B2, “Hexahydrodibenzo[a,g]quinolizine compound, preparation method thereof, pharmaceutical composition and use thereof” (SHANGHAI INSTITUTE OF MATERIA MEDICA, CHINESE ACADEMY OF …, priority 2011, dated 2016).

Columns and labels:
dopamine D1 receptor = dopamine D1 receptor (Macaca mulatta (Rhesus macaque), UniProt O77680); assay: Affinity on dopamine D1 receptor, competition with [3H] SCH23390; format: binding; parameters: D1 receptor inhibition ratio (%): concentration or dose not given beside the values; conditions: for affinity on dopamine D1 receptor (in words): summary of the tables
Sequence of dopamine D1 receptor (O77680 whole entry): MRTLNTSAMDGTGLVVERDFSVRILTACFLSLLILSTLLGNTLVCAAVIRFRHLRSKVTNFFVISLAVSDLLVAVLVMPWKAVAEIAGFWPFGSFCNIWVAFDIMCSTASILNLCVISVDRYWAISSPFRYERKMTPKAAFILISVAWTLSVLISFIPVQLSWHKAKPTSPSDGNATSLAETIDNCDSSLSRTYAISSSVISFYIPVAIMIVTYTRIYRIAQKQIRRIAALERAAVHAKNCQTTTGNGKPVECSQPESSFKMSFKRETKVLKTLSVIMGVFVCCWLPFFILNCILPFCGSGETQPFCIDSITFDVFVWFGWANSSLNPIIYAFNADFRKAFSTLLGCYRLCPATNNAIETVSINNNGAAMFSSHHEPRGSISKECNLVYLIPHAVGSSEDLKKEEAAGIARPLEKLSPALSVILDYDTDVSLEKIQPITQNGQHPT
Procedure: (§1) (1). Determination of the Affinity of Hexahydrodibenzo[a,g]Quinolizine Compound of General Formula I and Derivatives Thereof on Dopamine D1, Dopamine D2, 5-HT1A, and 5-HT2A Receptor.
(§2) 1) The Experimental Method
(§3) Different concentrations (10^−5 M-10^−11 M) of the compound of the invention and corresponding isotope receptor ligand as well as receptor protein were loaded into the reaction tube and incubated in 30° C. water bath for 60 minutes. The reaction was terminated in a refrigerator. The reaction mixture was put in a Millipore filter (millipore) cell sample collector, filtered through suction filtration using GF/C glass fiber filter paper, and dried. The resulting sample was placed into 0.5 mL tube. 500 μL liquid scintillation fluid was added and intensity of radioactivity was determined by counting.
(§4) (1) Construction of receptor and materials for cell culture: Escherichia coli. DH5α strain; insect virus transfer vector pVL1393 plasmid; BaculoGold linear Chinese baculovirus DNA, purchased from ParMingen company; mkD1RcDNA; rD2R cDNA; various restriction endonucleases, TaqDNA polymerase, T4 ligase, etc., LB medium; insect cell culture TNM-FH.
(§5) (2) the Experimental Materials for Receptor Binding
(§6) Firstly, the above […] are dissolved in DMSO and then diluted with double distilled water to the appropriate concentration (10^−5 M-10^−11 M).
(§7) (+) Butaclamo purchased from RBI company, GF/C glass fiber filter paper purchased from Whatman Co., scintillation fluid (dopamine D1, D2 receptors)/liposoluble scintillation fluid (5-HT1A, 5-HT2A receptor), Beckman LS-6500 multi-function liquid scintillation counter.

D2 dopamine receptor = D2 dopamine receptor (Rattus norvegicus (Rat), UniProt P61169); assay: Affinity on dopamine D2 receptor, competition with [3H] Spiperone; format: binding; parameters: D2 receptor inhibition ratio (%): concentration or dose not given beside the values; conditions: for affinity on dopamine D2 receptor (in words): summary of the tables
Sequence of D2 dopamine receptor (P61169 whole entry): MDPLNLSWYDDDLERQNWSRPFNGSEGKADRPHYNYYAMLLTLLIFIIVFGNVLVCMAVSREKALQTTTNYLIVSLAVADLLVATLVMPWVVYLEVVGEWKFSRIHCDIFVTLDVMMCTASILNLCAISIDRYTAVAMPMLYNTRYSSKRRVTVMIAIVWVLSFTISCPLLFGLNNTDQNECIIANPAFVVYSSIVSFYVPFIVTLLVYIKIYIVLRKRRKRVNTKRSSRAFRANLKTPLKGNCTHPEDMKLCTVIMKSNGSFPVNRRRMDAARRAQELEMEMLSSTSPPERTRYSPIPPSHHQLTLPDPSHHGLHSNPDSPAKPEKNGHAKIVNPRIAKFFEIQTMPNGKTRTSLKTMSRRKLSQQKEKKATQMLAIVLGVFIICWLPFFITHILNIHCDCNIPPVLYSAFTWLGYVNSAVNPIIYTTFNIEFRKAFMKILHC
Procedure: as §1, §2, §3, §4, §5, §6, §7

D1 dopamine receptors = D1 dopamine receptors (Homo sapiens (Human), UniProt P21728); assay: Radioligand binding assay, D1 receptor, HEK293T membrane homogenates; conditions: HEK293T membranes, [3H]SCH23390
Sequence of D1 dopamine receptors (P21728 whole entry): as the sequence (O77680 whole entry) above, with I311N counted along it
Procedure: (§8) The affinity of compounds to D1 and D2 dopamine receptors were determined by competition binding assays. Membrane homogenates of HEK293T cells were stably transfected with D1, or D2 receptors. […] The reaction was started by addition of membranes ([…]) and stopped by rapid filtration through Whatman GF/B glassfiber filter and subsequently washed with cold buffer (50 mM Tris, 5 mM EDTA, pH 7.4) using a Brandel 24-well cell harvester. Scintillation cocktail was added and the radioactivity was determined in a MicroBeta liquid scintillation counter. The IC50 and Ki values were calculated by nonlinear regression (PRISM, Graphpad, San Diego, Calif.) using a sigmoidal function.

dopamine D2 receptor = dopamine D2 receptor (Homo sapiens (Human), UniProt P14416); assay: Radioligand binding assay, D2 receptor, HEK293T membrane homogenates; parameters: D2 Inhibition (%): concentration or dose not given beside the values; conditions: HEK293T membranes, [3H]Spiperone
Sequence of dopamine D2 receptor (P14416 whole entry, species assumed): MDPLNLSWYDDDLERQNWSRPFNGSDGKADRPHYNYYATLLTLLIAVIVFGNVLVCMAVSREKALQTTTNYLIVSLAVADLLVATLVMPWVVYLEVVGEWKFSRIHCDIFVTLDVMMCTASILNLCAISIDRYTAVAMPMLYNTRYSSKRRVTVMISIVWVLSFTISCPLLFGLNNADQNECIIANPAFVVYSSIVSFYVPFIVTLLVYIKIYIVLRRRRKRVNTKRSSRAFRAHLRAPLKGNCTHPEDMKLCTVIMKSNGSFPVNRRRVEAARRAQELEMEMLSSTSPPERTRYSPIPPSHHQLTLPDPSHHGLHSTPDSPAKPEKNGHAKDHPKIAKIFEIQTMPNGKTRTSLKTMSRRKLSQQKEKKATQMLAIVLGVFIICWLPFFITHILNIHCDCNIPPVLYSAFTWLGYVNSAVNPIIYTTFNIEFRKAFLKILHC
Procedure: as §8

D1 receptor = D1 receptor (Homo sapiens (Human), UniProt P21728); assay: [35S]GTPγS binding assay for D1 receptor; format: biochemical; conditions: [35S]GTPγS binding; read-out: D1 agonist Emax %
Sequence of D1 receptor (P21728 whole entry): as the sequence (O77680 whole entry) above, with I311N counted along it

5-HT1A receptor = 5-HT1A receptor (Homo sapiens (Human), UniProt P08908); assay: Affinity on 5-HT1A receptor, competition with [3H] 8-OH-DPAT; format: binding
Sequence of 5-HT1A receptor (P08908 whole entry): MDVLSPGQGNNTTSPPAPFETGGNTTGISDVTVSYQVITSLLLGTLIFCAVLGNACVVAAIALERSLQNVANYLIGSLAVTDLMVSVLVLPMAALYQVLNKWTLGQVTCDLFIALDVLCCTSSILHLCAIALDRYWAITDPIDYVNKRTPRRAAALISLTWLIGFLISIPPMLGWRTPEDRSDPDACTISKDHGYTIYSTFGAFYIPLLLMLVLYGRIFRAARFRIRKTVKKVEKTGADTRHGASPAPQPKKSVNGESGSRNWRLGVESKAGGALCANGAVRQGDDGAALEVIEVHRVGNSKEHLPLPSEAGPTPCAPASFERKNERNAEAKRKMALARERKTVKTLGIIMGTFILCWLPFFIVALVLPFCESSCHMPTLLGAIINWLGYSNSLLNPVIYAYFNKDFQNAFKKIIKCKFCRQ
Procedure: as §1, §2, §3, §5
8-OH-DPAT; 5-HT1A receptor protein expressed in HEK-293 cells;
as §6, §7

| Structure (SMILES) | D1 receptor inhibition ratio (%) (dopamine D1 receptor) | D2 receptor inhibition ratio (%) (D2 dopamine receptor) | IC50 (dopamine D1 receptor) | Ki (dopamine D1 receptor) | also measured |
| --- | --- | --- | --- | --- | --- |
| COc1c(O)ccc2c1CN1CCc3cc4c(cc3[C@@H]1C2)OCC4 [DC037081, S-(−)-9-methoxyl-10-hydroxy-2,3,5,8,13,13a-hexahydro-8H-benzo[3,2,a,g]furanquinolizine] | 22.60% | 73.07% | – | – | Ki (D1 dopamine receptors): 17.3 ± 0.54 nM; Ki (dopamine D2 receptor): 147 ± 10.2 nM |
| COc1cc2c(cc1OC)[C@@H]1Cc3c(CO)c(OC)cc(OC)c3CN1CC2 [DC037076, (S)-2,3,9,11-tetramethoxy-12-hydroxymethyl-5,8,13,13a-tetra-hydro-6H-dibenzo[a,g]quinolizine] | – | – | – | – | Ki (D1 dopamine receptors): 74.5 ± 3.85 nM; D2 Inhibition (%) (dopamine D2 receptor): 1.02% |
| COc1cc2c(cc1O)[C@@H]1Cc3cc(C)cc(C)c3CN1CC2 [DC037031, S-(−)-2-hydroxy-3-methoxy-9,11-dimethyl-5,8,13,13a-tetra-hydro-6H-dibenzo[a,g]quinolizine] | 98.99% | 90.10% | 56.4 nM | 28.9 nM | affinity on dopamine D1 receptor (in words) (dopamine D1 receptor): strong affinity; IC50 (D2 dopamine receptor): 456 nM; Ki (D2 dopamine receptor): 161 nM; affinity on dopamine D2 receptor (in words) (D2 dopamine receptor): strong affinity; Ki (D1 dopamine receptors): 28.9 ± 2.73 nM; Ki (dopamine D2 receptor): 161 ± 21.1 nM |
| COc1ccc2c(c1)CCN1Cc3c(cc(OC)c(OC)c3OC)CC21 (racemic) [DC037007, (±)-3,9,10,11-tetramethoxy-5,8,13,13a-tetrahydro-6H-dibenzo[a,g]quinolizine] | 87.65% | 49.05% | 2030 nM | 1000 nM | – |
| COc1cc2c(c(OC)c1)CN1CCc3cc4c(cc3[C@@H]1C2)OCO4 [DC037078, (S)-2,3-methylenedioxy-9,11-bimethoxy-5,8,13,13a-tetrahydro-6H-dibenzo[a,g]quinolizine] | 97.79% | 1.02% | 142 nM | 74.5 nM | Ki (D1 dopamine receptors): 64.1 ± 4.43 nM; D2 Inhibition (%) (dopamine D2 receptor): 39.50% |
| COc1cc2c(cc1OC)C1Cc3cc4c(cc3CN1CC2)OCO4 (racemic) [DC037014, (±)-2,3-bimethoxy-10,11-methylenedioxy-5,8,13,13a-tetrahydro-6H-dibenzo[a,g]quinolizine] | 58.2% | 25.8% | – | – | – |
| COc1ccc(OC)c2c1C[C@H]1c3cc(O)c(O)cc3CCN1C2 [DC037035, S-(−)-2,3-bihydroxy-9,12-bimethoxy-5,8,13,13a-tetrahydro-6H-dibenzo[a,g]quinolizine] | 99.68% | 84.30% | 13.3 nM | 6.72 nM | affinity on dopamine D1 receptor (in words) (dopamine D1 receptor): strong affinity; affinity on dopamine D2 receptor (in words) (D2 dopamine receptor): strong affinity; Ki (D1 dopamine receptors): 6.72 ± 0.34 nM; D2 Inhibition (%) (dopamine D2 receptor): 84.30% |
| COc1ccc2c(c1)CCN1Cc3cc(OC)c(OC)cc3CC21 (racemic) [DC037009, (±)-3,10,11-trimethoxy-5,8,13,13a-tetrahydro-6H-dibenzo[a,g]quinolizine] | −13.6% | 0.35% | – | – | – |
| Oc1cc2c(cc1O)C(c1ccccc1)CNCC2 (stereo not shown) [SKF38393, reference compound] | – | – | – | – | Emax (D1 receptor): 100% |
| COc1cc2c(cc1OC)[C@@H]1Cc3cc4c(cc3[C@H](C)N1CC2)OCO4 [DC037020, (8S,14S)-2,3-bimethoxy-8-methyl-10,11-methylenedioxy-5,8,13,13a-tetrahydro-6H-dibenzo[a,g]quinolizine] | 47.3% | 57.1% | – | – | – |
| COc1cc2c(cc1OC)CN1CCc3cc(OC)c(OC)cc3C1C2 (racemic) [DC037001, (±)-2,3,10,11-tetramethoxy-5,8,13,13a-tetrahydro-6H-dibenzo[a,g]quinolizine] | 58.95% | 14.7% | – | – | – |
| COc1c(O)ccc2c1CN1CCc3cc4c(cc3[C@@H]1C2)OCCO4 [DC037082, S-(−)-2,3-bimethylenedioxy-9-methoxyl-10-hydroxy-5,8,13,13a-tetrahydro-6H-dibenzo[a,g]quinolizine] | 99.32% | 63.94% | 14.7 nM | 7.51 nM | affinity on dopamine D1 receptor (in words) (dopamine D1 receptor): strong affinity; affinity on dopamine D2 receptor (in words) (D2 dopamine receptor): strong affinity |
| COc1cc2c(cc1OC)CN1CCc3cc4c(cc3[C@@H]1C2)OCO4 [DC037015, S-(−)-2,3-methylenedioxy-10,11-bimethoxy-5,8,13,13a-tetrahydro-6H-dibenzo[a,g]quinolizine] | 59.2% | 59.3% | – | – | – |
| COc1cc2c(cc1OC)[C@@H]1Cc3cc(OC)c(OC)c(OC)c3CN1CC2 [DC037006, S-(−)-2,3,9,10,11-pentamethoxyl-5,8,13,13a-tetrahydro-6H-dibenzo[a,g]quinolizine] | 91.75% | 48.0% | 648 nM | 320 nM | – |
| COc1cc2c(cc1OC)CN1CCc3cc4c(cc3C1C2)OCO4 (racemic) [DC037021, (±)-2,3-methylenedioxy-10,11-bimethoxy-5,8,13,13a-tetrahydro-6H-dibenzo[a,g]quinolizine] | 56.5% | 44.5% | – | – | – |
| COc1ccc(OC)c2c1C[C@H]1c3cc4c(cc3CCN1C2)CCO4 [DC037034, S-(+9,12-bimethoxy-2,3,5,8,13,13a-hexahydro-8H-benzo[3,2,a,g]furanquinolizine] | – | – | 484 nM | 248 nM | Ki (5-HT1A receptor): 497 nM |
| COc1cc2c(cc1OC)[C@@H]1Cc3cc4c(cc3CN1CC2)OCO4 [DC037011, S-(−)-2,3-bimethoxy-10,11-methylenedioxy-5,8,13,13a-tetrahydro-6H-dibenzo[a,g]quinolizine] | 59.3% | 41.7% | – | – | – |
| COc1cc2c(cc1OC)C1Cc3cc(OC)c(OC)c(OC)c3CN1CC2 (racemic) [DC037002, (±)-2,3,9,10,11-pentamethoxyl-5,8,13,13a-tetrahydro-6H-dibenzo[a,g]quinolizine] | 77.95% | 27.05% | – | – | – |
| COc1cc2c(cc1OC)[C@@H]1Cc3cc(OC)c(OC)c(OC)c3[C@H](C)N1CC2 [DC037019, (8S,14S)-2,3,9,10,11-pentamethoxyl-8-methyl-5,8,13,13a-tetra-hydro-6H-dibenzo[a,g]quinolizine] | 10.3% | 65.3% | – | – | – |
| COc1cc2c(c(OC)c1OC)CN1CCc3cc4c(cc3[C@@H]1C2)OCO4 [DC037016, S-(−)-2,3-methylenedioxy-9,10,11-bimethoxy-5,8,13,13a-tetra-hydro-6H-dibenzo[a,g]quinolizine] | 95.5% | 66.2% | 763 nM | 377 nM | – |
